These are literature values, as cited in patent publication US20240109913A1, “NEW SPIRO[3H-INDOLE-3,2'-PYRROLIDIN]-2(1H)-ONE COMPOUNDS AND DERIVATIVES AS MDM2-P53 INHIBITORS” (Boehringer Ingelheim International GmbH, priority 2014, published 2024).

For data set [1], the system named is human acute myeloid leukemia (AML) and human prostate tumor xenograft models harboring p53 wild-type. The settings on record: p53 wild-type (Tovar et al. 2013).
Data set [2] concerns p53 wild-type vs. p53 mutant cell lines. The settings on record: in vitro (Carol et al. 2013).
The subject of data set [3] is acute lymphoblastic leukemia (ALL) xenograft models with mixed-lineage leukemia (MLL) rearrangement. The conditions noted are these: ALL xenograft models with MLL rearrangement (Carol et al. 2013).
In data set [4] the test system is solid tumor xenograft models. The settings on record: solid tumor xenograft models (Carol et al. 2013).

In the case of `CCOc1cc(C(C)(C)C)ccc1C1=N[C@@](C)(c2ccc(Cl)cc2)[C@@](C)(c2ccc(Cl)cc2)N1C(=O)N1CCN(CCCS(C)(=O)=O)CC1` [RG7112], the “antiproliferative and proapoptotic activity” value in data set [1] was “antiproliferative and proapoptotic activity of RG7112 has been observed”.
Regarding `CCOc1cc(C(C)(C)C)ccc1C1=N[C@@](C)(c2ccc(Cl)cc2)[C@@](C)(c2ccc(Cl)cc2)N1C(=O)N1CCN(CCCS(C)(=O)=O)CC1` [RG-7112], in data set [2], the “cytotoxic activity, median IC50” value was “lower median IC50 values for p53 wild-type vs. p53 mutant cell lines”. The “efficacy in ALL xenograft models” value in data set [3] is reported as “particularly efficacious”. For the same molecule, the tumor growth inhibition result in data set [4] is “induced tumor growth inhibition”.
